From patent US10519207B2, “Compositions and methods for treating opioid tolerance” (priority 2015, dated 2019)

Key:
solTNF = molecular target: T1, solTNF (Mus musculus, UniProt P06804); settings: systemic delivery; cited from earlier work
T1 construct: There are two active forms of TNF, soluble-TNF (solTNF) and transmembrane-TNF (tmTNF); host or cells: endogenous TNF of EAE animals
T1 sequence (P06804 80-235 limits assumed): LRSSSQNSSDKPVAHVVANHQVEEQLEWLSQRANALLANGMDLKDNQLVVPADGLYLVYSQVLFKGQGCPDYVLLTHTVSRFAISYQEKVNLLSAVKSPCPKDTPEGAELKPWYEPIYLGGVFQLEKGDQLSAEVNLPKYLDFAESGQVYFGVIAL

TNF = settings: morphine tolerant animals; cited from earlier work
EAAC1 mRNA = assay: In situ hybridization of neuronal EAAC1 mRNA in caudal vlPAG; format: in vivo, rat
TNF mRNA = assay: qPCR of TNF mRNA in vlPAG; format: in vivo, rat; settings: chronic morphine with or without XPro1595
Description: (§1) Gene expression is reported as the ratio of the gene of interest to Gapdh, and are normalized to the Vehicle+Saline condition. Changes in mRNA between groups were assessed using an ANOVA on ranks (Kruskal-Wallis), and Mann Whitney U post-hoc comparisons (SPSS). Data are expressed as median; p<0.05 was considered significant.

IL-6 mRNA = assay: qPCR of IL-6 mRNA in vlPAG; format: in vivo, rat; settings: chronic morphine with or without XPro1595
Description: as §1

IL-10 mRNA = assay: qPCR of IL-10 mRNA in vlPAG; format: in vivo, rat; settings: chronic morphine with or without XPro1595
Description: as §1

soluble TNF (solTNF) = molecular target: T2, soluble TNF (solTNF) (Rattus norvegicus, UniProt P16599); format: in vivo; settings: 24 and 72 hours after intra-PAG administration
T2 construct: soluble TNF which is formed after cleavage of tmTNF by ADAM17/TNF-αlpha Converting Enzyme (TACE); from tissue; host or cells: living rat, ventrolateral periaqueductal gray (vlPAG) / CNS
Description: Male Sprague Dawley rats (250-350 g; Charles River; MA) were pair-housed on a 12:12 hour light:dark cycle (lights on at 7:00 am) with ad libitum access to food and water. The Institutional Animal Care and Use Committee at Georgia State University approved all studies.
Rats were implanted with bilateral cannula aimed at the ventrolateral PAG (vlPAG) and received bilateral infusions of lenti-DN-TNF or lenti-GFP while under surgical anesthesia.

Chain of TNF (P16599 80-235 limits assumed): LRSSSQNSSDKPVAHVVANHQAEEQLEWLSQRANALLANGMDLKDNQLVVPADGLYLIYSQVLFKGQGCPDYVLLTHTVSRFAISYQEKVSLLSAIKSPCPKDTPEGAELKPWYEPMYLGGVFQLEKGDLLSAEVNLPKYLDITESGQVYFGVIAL
T2 sequence (P16599 80-235): as the sequence (P16599 80-235 limits assumed) above

## etanercept
solTNF
  outcome in EAE: neither therapeutic nor neuroprotective
TNF
  effect on acute morphine inhibition of tail flick reflex: restores the ability of morphine to acutely inhibit tail flick reflex

## CN1CC[C@]23c4c5ccc(O)c4O[C@H]2[C@@H](O)C=C[C@H]3[C@H]1C5 [morphine]
EAAC1 mRNA; systemic morphine for 3 days
  vlPAG EAAC1 mRNA expression: No significant effect
TNF mRNA
  vlPAG TNF gene expression: not statistically significant
IL-6 mRNA
  vlPAG IL-6 mRNA: No significant change
IL-10 mRNA
  vlPAG IL-10 mRNA: No significant change

## lipopolysaccharide [LPS]
Soluble TNF (solTNF)
  baseline paw withdrawal latencies: no effect
EAAC1 mRNA; chronic vlPAG microinfusions of LPS
  vlPAG EAAC1 mRNA: did not alter
